This passage reports IC50 results from patent publication US20240398811A1, “PRC2 INHIBITORS FOR USE IN TREATING BLOOD DISORDERS” (ORIC Pharmaceuticals, Inc., priority 2021, published 2024).

The target of the assay is purified human, His-tagged PRC2 complex (Homo sapiens (Human), UniProt O75530). As to the kind of experiment: Hot Spot HMT assay, inhibition of PRC2 enzymatic activity. In kind it is biochemical. The following applies: 10 nM PRC2 complex, 1 μM 3H-SAM, core histone H3, 10-point dose-response. In outline: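 Five-subunit PRC2 complex (EZH2, EED, SUZ12, AEBP2, RbAp48; 10 nM) preincubated 20 min at 30° C with compound (top 1.0 μM) and 0.05 mg/ml core histone H3 in Tris-HCl, 1% DMSO. Started with 1 μM [3H]SAM, 1 hr at 30° C; tritiated H3 measured by filter binding and scintillation.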
purified human, His-tagged PRC2 complex, sequence (O75530 whole entry): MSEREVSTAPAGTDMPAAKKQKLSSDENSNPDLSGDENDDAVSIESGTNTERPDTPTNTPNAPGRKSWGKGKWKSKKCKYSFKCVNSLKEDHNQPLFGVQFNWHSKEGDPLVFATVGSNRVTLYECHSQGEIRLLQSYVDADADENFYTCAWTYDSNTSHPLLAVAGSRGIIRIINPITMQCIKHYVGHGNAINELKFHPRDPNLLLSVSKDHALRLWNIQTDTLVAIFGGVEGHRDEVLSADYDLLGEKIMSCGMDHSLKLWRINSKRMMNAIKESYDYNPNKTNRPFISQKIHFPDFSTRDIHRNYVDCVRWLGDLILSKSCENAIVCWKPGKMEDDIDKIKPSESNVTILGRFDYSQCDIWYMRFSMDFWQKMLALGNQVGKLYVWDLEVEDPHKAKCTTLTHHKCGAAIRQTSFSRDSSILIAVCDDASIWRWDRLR
purified human, His-tagged PRC2 complex, sequence (Q15910 whole entry partner): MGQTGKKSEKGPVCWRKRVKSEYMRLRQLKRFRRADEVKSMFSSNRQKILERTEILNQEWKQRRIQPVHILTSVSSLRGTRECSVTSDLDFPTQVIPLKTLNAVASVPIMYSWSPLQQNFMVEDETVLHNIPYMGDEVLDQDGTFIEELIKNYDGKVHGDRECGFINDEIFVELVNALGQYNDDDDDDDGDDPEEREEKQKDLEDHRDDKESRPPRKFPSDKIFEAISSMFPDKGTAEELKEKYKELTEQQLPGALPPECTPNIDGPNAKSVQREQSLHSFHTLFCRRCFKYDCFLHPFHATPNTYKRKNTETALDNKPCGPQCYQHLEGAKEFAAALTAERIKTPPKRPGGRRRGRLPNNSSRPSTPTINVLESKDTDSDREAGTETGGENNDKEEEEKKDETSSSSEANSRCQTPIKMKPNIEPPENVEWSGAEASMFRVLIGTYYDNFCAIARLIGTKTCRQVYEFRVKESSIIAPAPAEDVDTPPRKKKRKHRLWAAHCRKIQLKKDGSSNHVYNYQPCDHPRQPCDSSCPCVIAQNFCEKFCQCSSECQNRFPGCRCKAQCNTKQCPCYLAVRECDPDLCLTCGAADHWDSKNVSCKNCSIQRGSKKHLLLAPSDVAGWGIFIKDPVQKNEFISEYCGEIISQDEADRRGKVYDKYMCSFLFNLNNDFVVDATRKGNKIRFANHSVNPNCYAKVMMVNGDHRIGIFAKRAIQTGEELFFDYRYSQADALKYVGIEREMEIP
purified human, His-tagged PRC2 complex, sequence (Q15022 whole entry partner): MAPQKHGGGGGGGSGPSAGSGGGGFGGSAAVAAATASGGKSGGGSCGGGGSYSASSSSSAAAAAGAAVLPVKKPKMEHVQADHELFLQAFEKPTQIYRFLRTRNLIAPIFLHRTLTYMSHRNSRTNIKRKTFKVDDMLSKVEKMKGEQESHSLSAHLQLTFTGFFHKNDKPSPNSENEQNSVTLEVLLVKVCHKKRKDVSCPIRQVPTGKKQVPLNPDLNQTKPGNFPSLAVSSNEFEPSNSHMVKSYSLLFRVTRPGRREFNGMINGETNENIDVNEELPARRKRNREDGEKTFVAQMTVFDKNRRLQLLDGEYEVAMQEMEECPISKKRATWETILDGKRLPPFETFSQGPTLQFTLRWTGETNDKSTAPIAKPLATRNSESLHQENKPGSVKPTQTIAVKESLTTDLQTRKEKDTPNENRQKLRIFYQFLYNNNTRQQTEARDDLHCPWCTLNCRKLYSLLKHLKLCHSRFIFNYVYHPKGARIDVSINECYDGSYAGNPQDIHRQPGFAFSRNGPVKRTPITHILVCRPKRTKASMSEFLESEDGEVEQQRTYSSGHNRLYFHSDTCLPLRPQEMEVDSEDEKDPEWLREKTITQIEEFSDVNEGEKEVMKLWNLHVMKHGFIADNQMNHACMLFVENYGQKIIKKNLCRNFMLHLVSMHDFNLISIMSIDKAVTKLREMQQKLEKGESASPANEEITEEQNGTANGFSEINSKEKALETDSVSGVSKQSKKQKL
purified human, His-tagged PRC2 complex, sequence (Q6ZN18 whole entry partner): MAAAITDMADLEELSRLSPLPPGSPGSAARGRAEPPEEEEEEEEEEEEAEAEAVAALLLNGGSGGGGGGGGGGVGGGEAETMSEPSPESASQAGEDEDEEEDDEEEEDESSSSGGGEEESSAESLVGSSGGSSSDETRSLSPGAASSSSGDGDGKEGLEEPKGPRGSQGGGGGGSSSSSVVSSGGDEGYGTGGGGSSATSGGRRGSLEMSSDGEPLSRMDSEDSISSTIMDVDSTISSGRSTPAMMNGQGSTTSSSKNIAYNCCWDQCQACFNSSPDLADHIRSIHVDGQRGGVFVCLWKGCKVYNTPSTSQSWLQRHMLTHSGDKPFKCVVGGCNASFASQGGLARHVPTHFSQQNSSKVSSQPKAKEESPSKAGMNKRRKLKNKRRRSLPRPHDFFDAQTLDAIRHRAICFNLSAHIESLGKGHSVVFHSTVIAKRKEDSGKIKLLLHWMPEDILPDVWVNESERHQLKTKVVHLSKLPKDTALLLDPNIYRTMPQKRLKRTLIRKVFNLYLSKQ
purified human, His-tagged PRC2 complex, sequence (Q09028 whole entry partner): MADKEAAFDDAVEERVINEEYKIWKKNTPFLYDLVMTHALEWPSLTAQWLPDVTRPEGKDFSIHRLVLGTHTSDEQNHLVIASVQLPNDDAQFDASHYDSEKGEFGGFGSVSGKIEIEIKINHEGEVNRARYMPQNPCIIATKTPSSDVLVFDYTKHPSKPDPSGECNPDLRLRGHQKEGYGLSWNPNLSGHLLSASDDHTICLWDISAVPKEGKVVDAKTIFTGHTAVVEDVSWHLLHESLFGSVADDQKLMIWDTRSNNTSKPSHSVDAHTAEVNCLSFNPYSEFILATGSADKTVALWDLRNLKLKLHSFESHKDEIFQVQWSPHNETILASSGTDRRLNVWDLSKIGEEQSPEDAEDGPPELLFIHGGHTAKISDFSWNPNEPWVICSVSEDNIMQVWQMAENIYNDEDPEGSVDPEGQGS
The term IC50 denotes the concentration that gives 50% inhibition. A high value points to lower potency. On to `CN1CCc2cc(-c3cnc(NCc4c(F)ccc5c4CCO5)n4cc(C#N)nc34)ccc2C1=O` [Example 168, 5-(((5-fluoro-2,3-dihydrobenzofuran-4-yl)methyl)amino)-8-(2-methyl-1-oxo-1,2,3,4-tetrahydroisoquinolin-6-yl)imidazo[1,2-c]pyrimidine-2-carbonitrile], for which the half-maximal inhibitory concentration (IC50) is < 100 nM. As for `COC(=O)c1cc(-c2cnc(NCc3c(F)ccc4c3CCO4)n3cc(C#N)nc23)n(C)n1` [Example 169, methyl 5-(2-cyano-5-(((5-fluoro-2,3-dihydrobenzofuran-4-yl)methyl)amino)imidazo[1,2-c]pyrimidin-8-yl)-1-methyl-1H-pyrazole-3-carboxylate], the half-inhibitory concentration (IC50) is < 100 nM.

Turning to `CN(C)C(=O)c1cc(-c2cnc(NCc3c(F)ccc4c3CCO4)n3cc(C#N)nc23)n(C)n1` [Example 170, 5-(2-cyano-5-(((5-fluoro-2,3-dihydrobenzofuran-4-yl)methyl)amino)imidazo[1,2-c]pyrimidin-8-yl)-N,N,1-trimethyl-1H-pyrazole-3-carboxamide], the concentration for half-maximal inhibition (IC50) was < 100 nM. With `CN(C)C1(c2ccc(-c3cnc(NCc4c(F)ccc5c4CCO5)n4cc(C#N)nc34)cc2)CC1` [Example 171, 8-(4-(1-(dimethylamino)cyclopropyl)phenyl)-5-(((5-fluoro-2,3-dihydrobenzofuran-4-yl)methyl)amino)imidazo[1,2-c]pyrimidine-2-carbonitrile] the figure was < 100 nM. As for `N#Cc1cn2c(NCc3c(F)ccc4c3CCO4)ncc(-c3ccc4c(c3)CCNC4=O)c2n1` [Example 172, 5-(((5-fluoro-2,3-dihydrobenzofuran-4-yl)methyl)amino)-8-(1-oxo-1,2,3,4-tetrahydroisoquinolin-6-yl)imidazo[1,2-c]pyrimidine-2-carbonitrile], the figure is < 100 nM. With `[2H]C([2H])(c1ccc(-c2cnc(NCc3c(F)ccc4c3CCO4)n3cc(C#N)nc23)c(C)c1)N(C)C` [Example 173, 8-(4-((dimethylamino)methyl-d2)-2-methylphenyl)-5-(((5-fluoro-2,3-dihydrobenzofuran-4-yl)methyl)amino)imidazo[1,2-c]pyrimidine-2-carbonitrile] the figure was < 100 nM; with `N#Cc1cn2c(NCc3c(F)ccc4c3CCO4)ncc(-c3cccc(C(=O)O)c3)c2n1` [Example 174, 3-(2-cyano-5-(((5-fluoro-2,3-dihydrobenzofuran-4-yl)methyl)amino)imidazo[1,2-c]pyrimidin-8-yl)benzoic acid], < 100 nM.

Take `Cc1ccc(-c2cnc(NCc3c(F)ccc4c3CCO4)n3cc(C#N)nc23)cc1` [Example 175, 5-(((5-fluoro-2,3-dihydrobenzofuran-4-yl)methyl)amino)-8-(p-tolyl)imidazo[1,2-c]pyrimidine-2-carbonitrile]: the 50% inhibitory concentration (IC50) is 100 to 500 nM.

`Cc1c(C#N)cccc1-c1cnc(NCc2c(F)ccc3c2CCO3)n2cc(C#N)nc12` [Example 176, 8-(3-cyano-2-methylphenyl)-5-(((5-fluoro-2,3-dihydrobenzofuran-4-yl)methyl)amino)imidazo[1,2-c]pyrimidine-2-carbonitrile]: the 50% inhibitory concentration (IC50) is < 100 nM. On to `Cc1ccc(C#N)cc1-c1cnc(NCc2c(F)ccc3c2CCO3)n2cc(C#N)nc12` [Example 177, 8-(5-cyano-2-methylphenyl)-5-(((5-fluoro-2,3-dihydrobenzofuran-4-yl)methyl)amino)imidazo[1,2-c]pyrimidine-2-carbonitrile], for which the IC50 is 100 to 500 nM.

For `CC(O)Cn1cc(-c2cnc(NCc3c(F)ccc4c3CCO4)n3cc(C#N)nc23)cn1` (stereo not drawn) [Example 179, 5-(((5-fluoro-2,3-dihydrobenzofuran-4-yl)methyl)amino)-8-(1-(2-hydroxypropyl)-1H-pyrazol-4-yl)imidazo[1,2-c]pyrimidine-2-carbonitrile], the IC50 is < 100 nM.

`CN(C)C(=O)c1ccc(-c2cnc(NCc3c(F)ccc4c3CCO4)n3cc(C#N)nc23)cc1` [Example 180, 4-(2-cyano-5-(((5-fluoro-2,3-dihydrobenzofuran-4-yl)methyl)amino)imidazo[1,2-c]pyrimidin-8-yl)-N,N-dimethylbenzamide]: the half-inhibitory concentration (IC50) is < 100 nM.
